{"source": "patent US20260166039A1", "about": "(SCHRÖDINGER, INC., priority 2022, published 2026)"}
{"biological_target": "T1, Wee1 kinase domain (Homo sapiens, UniProt P30291)", "T1 construct": "Wee1 kinase domain was purchased from Carna (catalog #05-177); purchased Carna 05-177", "T1 sequence (P30291 299-569 limits assumed)": "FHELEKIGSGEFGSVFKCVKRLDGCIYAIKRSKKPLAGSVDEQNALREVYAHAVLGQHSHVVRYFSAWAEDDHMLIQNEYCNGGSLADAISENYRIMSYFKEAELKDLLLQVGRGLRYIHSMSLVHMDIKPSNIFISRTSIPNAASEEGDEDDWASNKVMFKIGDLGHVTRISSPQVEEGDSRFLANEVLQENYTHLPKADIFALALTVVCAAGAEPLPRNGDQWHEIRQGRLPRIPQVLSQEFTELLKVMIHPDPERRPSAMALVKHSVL", "assay": "Wee1 Kinase Biochemical Assay (ADP-Glo)", "conditions": "Wee1 kinase domain, 15 uM ATP, ADP-Glo", "how_it_was_run": "(§1)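 1 nM enzyme; 15 uM ATP; 2 ng/mL poly(Lys,Tyr 4:1); 40 mM Tris-HCl, 20 mM MgCl2, 0.1 mg/mL BSA, 2 mM DTT; 4 h, 25 °C; ADP-Glo; % inhibition vs DMSO and saturating positive-control wells.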", "units": {"IC50": "nM"}}
{"molecule": "Cc1cc(Nc2ncc3c(n2)N(c2cccc(C(C)(C)O)n2)[C@H]2CC(C)(C)OC[C@@]32C)ccc1N1CCN(C)CC1", "note": "(single isomer, unassigned) [Example 10]", "IC50": "10 to 100"}
{"molecule": "CN1CCC(n2ccc(Nc3ncc4c(n3)N(c3cccc(N=S(C)(C)=O)n3)[C@@H]3CC(C)(C)OC[C@]43C)n2)CC1", "note": "(single isomer, unassigned) [Example 229]", "IC50": "10 to 100"}
{"molecule": "CN1CC(n2cc(Nc3ncc4c(n3)N(c3cccc(N=S(C)(C)=O)n3)[C@H]3CC(C)(C)OC[C@@]43C)cn2)C1", "note": "(single isomer, unassigned) [Example 208]", "IC50": "10 to 100"}
{"molecule": "C[C@H]1COC(=O)N1c1cccc(N2c3nc(Nc4ccc([C@@H]5CCNC5)cc4)ncc3[C@]3(C)COC(C)(C)C[C@H]23)n1", "note": "(single isomer, unassigned) [Example 274]", "IC50": "10 to 100"}
{"molecule": "C[C@H]1COC(=O)N1c1cccc(N2c3nc(Nc4ccc(N5C[C@@H]6C[C@H]5CN6C)cc4)ncc3[C@]3(C)COC(C)(C)C[C@H]23)n1", "note": "(single isomer, unassigned) [Example 244]", "IC50": "10 to 100"}
{"molecule": "CNCc1cccc(N2c3nc(Nc4ccc(N5CCOCC5)cc4)ncc3[C@]3(C)COC(C)(C)C[C@H]23)n1", "note": "(single isomer, unassigned) [Example 6]", "IC50": "10 to 100"}
{"molecule": "C[C@H]1COC(=O)N1c1cccc(N2c3nc(Nc4ccc(O[C@@H]5CCN(C)C5)nc4)ncc3[C@]3(C)COC(C)(C)C[C@H]23)n1", "note": "(single isomer, unassigned) [Example 282]", "IC50": "100 to 1000"}
{"molecule": "CC1(C)C[C@H]2N(c3cccc(N=S(C)(C)=O)n3)c3nc(Nc4ncccc4F)ncc3[C@@]2(C)CO1", "note": "(single isomer, unassigned) [Example 368]", "IC50": "10 to 100"}
{"molecule": "CN1CCC[C@H]1c1ccc(Nc2ncc3c(n2)N(c2cccc(N=S(C)(C)=O)n2)[C@H]2CC(C)(C)OC[C@@]32C)cn1", "note": "(single isomer, unassigned) [Example 215]", "IC50": "100 to 1000"}
{"molecule": "Cc1cc(Nc2ncc3c(n2)N(c2cccc(N=S(C)(C)=O)n2)[C@H]2CC(C)(C)OC[C@@]32C)ccc1[C@H]1CCN(C)C1", "note": "(single isomer, unassigned) [Example 148]", "IC50": "10 to 100"}
{"molecule": "Cc1cc(Nc2ncc3c(n2)N(c2cccc(N4C(=O)OC[C@@H]4C)n2)[C@H]2CC(C)(C)OC[C@@]32C)ccc1[C@@H]1CCNC1", "note": "(single isomer, unassigned) [Example 268]", "IC50": "10 to 100"}
{"molecule": "CN=S1(=O)CCN(c2ccc(Nc3ncc4c(n3)N(c3cccc(CNC)n3)[C@H]3CC(C)(C)OC[C@@]43C)cc2)CC1", "note": "(single isomer, unassigned) [Example 66]", "IC50": "100 to 1000"}
{"molecule": "C[C@H]1COC(=O)N1c1cccc(N2c3nc(Nc4ccc(C5(C)COC5)cc4)ncc3[C@]3(C)COC(C)(C)C[C@H]23)n1", "note": "(single isomer, unassigned) [Example 302]", "IC50": "100 to 1000"}
{"molecule": "C[C@H]1COC(=O)N1c1cccc(N2c3nc(Nc4ccc([C@H]5CCNC5)nc4)ncc3[C@]3(C)COC(C)(C)C[C@H]23)n1", "note": "(single isomer, unassigned) [Example 258]", "IC50": "100 to 1000"}
{"molecule": "C[C@H]1COC(=O)N1c1cccc(N2c3nc(Nc4ccc(O[C@@H]5CCN(C)C5)cc4)ncc3[C@]3(C)COC(C)(C)C[C@H]23)n1", "note": "(single isomer, unassigned) [Example 330]", "IC50": "10 to 100"}
{"biological_target": "T1, Wee1 kinase domain", "assay": "Wee1 Kinase Biochemical Assay (ADP-Glo)", "conditions": "class symbols; 1 nM Wee1 enzyme, 15 uM ATP, 4 hours at 25° C.", "how_it_was_run": "as §1", "units": {"IC50": "nM"}}
{"molecule": "CN1C[C@@H]2C[C@H]1CN2c1ccc(Nc2ncc3c(n2)N(c2cccc(C4(O)CC4)n2)[C@H]2CC(C)(C)OC[C@@]32C)cc1", "note": "[Example 645, 1-(6-((4bS,8aS)-4b,7,7-trimethyl-2-((4-((1S,4S)-5-methyl-2,5-diazabicyclo[2.2.1]heptan-2-yl)phenyl)amino)-4b,7,8,8a-tetrahydropyrano[3′,4′:4,5]pyrrolo[2,3-d]pyrimidin-9(5H)-yl)pyridin-2-yl)cyclopropan-1-ol]", "IC50": "100 to 1000"}
{"molecule": "CN1CC[C@H](Oc2ccc(Nc3ncc4c(n3)N(c3cccc(N5CCOC5=O)n3)[C@H]3CC(C)(C)OC[C@@]43C)cc2)C1", "note": "[Example 614, 3-(6-((4bS,8aS)-4b,7,7-trimethyl-2-((4-(((S)-1-methylpyrrolidin-3-yl)oxy)phenyl)amino)-4b,7,8,8a-tetrahydropyrano[3′,4′:4,5]pyrrolo[2,3-d]pyrimidin-9(5H)-yl)pyridin-2-yl)oxazolidin-2-one]", "IC50": "100 to 1000"}
{"molecule": "CNCc1cccc(N2c3nc(Nc4ccc(N5C[C@H]6C[C@@H](C5)O6)cc4)ncc3[C@]3(C)COC(C)(C)C[C@H]23)n1", "note": "(single isomer, unassigned) [Example 482]", "IC50": "100 to 1000"}
{"molecule": "CNCc1cccc(N2c3nc(Nc4ccc(N5[C@@H]6COC[C@H]5C6)cc4)ncc3[C@]3(C)COC(C)(C)C[C@H]23)n1", "note": "(single isomer, unassigned) [Example 480]", "IC50": "100 to 1000"}
{"molecule": "Cc1cc(Nc2ncc3c(n2)N(c2cccc(C(C)(C)O)n2)[C@H]2CC(C)(C)OC[C@@]32C)ccc1N1C[C@H]2C[C@@H]1CN2C", "note": "(single isomer, unassigned) [Example 426]", "IC50": "10 to 100"}
{"molecule": "CN1CCC(c2cccc(N3c4nc(Nc5ccc(N6CCOCC6)cc5)ncc4[C@]4(C)COC(C)(C)C[C@H]34)n2)CC1", "note": "(single isomer, unassigned) [Example 534]", "IC50": "100 to 1000"}
{"molecule": "CN1CC[C@H](c2ccc(Nc3ncc4c(n3)N(c3cccc(N5CCCC5=O)n3)[C@H]3CC(C)(C)OC[C@@]43C)cc2)C1", "note": "[Example 635, 1-(6-((4bS,8aS)-4b,7,7-trimethyl-2-((4-((R)-1-methylpyrrolidin-3-yl)phenyl)amino)-4b,7,8,8a-tetrahydropyrano[3′,4′:4,5]pyrrolo[2,3-d]pyrimidin-9(5H)-yl)pyridin-2-yl)pyrrolidin-2-one]", "IC50": "10 to 100"}
{"molecule": "CN1C[C@H]2C[C@@H]1CN2c1ccc(Nc2ncc3c(n2)N(c2cccc(N4CCOC4=O)n2)[C@H]2CC(C)(C)OC[C@@]32C)cc1", "note": "(single isomer, unassigned) [Example 592]", "IC50": "10 to 100"}
{"molecule": "CC1(C)C[C@H]2N(c3cccc([C@H]4CCCN4)n3)c3nc(Nc4ccc(N5CCOCC5)cc4)ncc3[C@@]2(C)CO1", "note": "(single isomer, unassigned) [Example 528]", "IC50": "< 10"}
{"molecule": "CNCc1cccc(N2c3nc(Nc4ccc(C(C)(C)C(=O)O)cc4)ncc3[C@]3(C)COC(C)(C)C[C@H]23)n1", "note": "(single isomer, unassigned) [Example 457]", "IC50": "≥ 1000"}
{"molecule": "C[C@@H]1COC(=O)N1c1cccc(N2c3nc(Nc4ccc(N5CCN(C)CC5)cc4)ncc3[C@]3(C)COC(C)(C)C[C@H]23)n1", "note": "(single isomer, unassigned) [Example 588]", "IC50": "10 to 100"}
{"molecule": "CN1C[C@H]2C[C@@H]1CN2c1ccc(Nc2ncc3c(n2)N(c2cccc(N4CCCC4=O)n2)[C@H]2CC(C)(C)OC[C@@]32C)cc1", "note": "[Example 630, 1-(6-((4bS,8aS)-4b,7,7-trimethyl-2-((4-((1R,4R)-5-methyl-2,5-diazabicyclo[2.2.1]heptan-2-yl)phenyl)amino)-4b,7,8,8a-tetrahydropyrano[3′,4′:4,5]pyrrolo[2,3-d]pyrimidin-9(5H)-yl)pyridin-2-yl)pyrrolidin-2-one]", "IC50": "100 to 1000"}
{"molecule": "CC[C@@]1(O)CCc2ccc(N3c4nc(Nc5ccc(N6C[C@@H]7C[C@H]6CN7C)cc5)ncc4[C@@]4(C)COC(C)(C)C[C@@H]34)nc21", "note": "[Example 792, (R)-7-ethyl-2-((4bR,8aR)-4b,7,7-trimethyl-2-((4-((1S,4S)-5-methyl-2,5-diazabicyclo[2.2.1]heptan-2-yl)phenyl)amino)-4b,7,8,8a-tetrahydropyrano[3′,4′:4,5]pyrrolo[2,3-d]pyrimidin-9(5H)-yl)-6,7-dihydro-5H-cyclopenta[b]pyridin-7-ol]", "IC50": "< 10"}
{"molecule": "CN1CC2(C1)CN(c1ccc(Nc3ncc4c(n3)N(c3cccc(N5C(=O)OCC5(C)C)n3)[C@@H]3CC(C)(C)OC[C@]43C)cc1)C2", "note": "(single isomer, unassigned) [Example 785]", "IC50": "< 10"}
{"molecule": "Cc1cc(Nc2ncc3c(n2)N(c2cccc(C(=O)N(C)C)n2)[C@H]2CC(C)(C)OC[C@@]32C)ccc1C1CCN(C)CC1", "note": "(single isomer, unassigned) [Example 584]", "IC50": "100 to 1000"}
{"molecule": "CC1(C)C[C@@H]2N(c3cccc(N4CCOC4=O)n3)c3nc(Nc4ccc([C@@H]5CCNC5)cc4)ncc3[C@]2(C)CO1", "note": "(single isomer, unassigned) [Example 606]", "IC50": "10 to 100"}
{"molecule": "C[C@H]1COC(=O)N1c1cccc(N2c3nc(Nc4ccc([C@H]5CCN(C)C5)cc4)ncc3[C@@]3(C)COCC[C@@H]23)n1", "note": "[Example 793, (S)-4-methyl-3-(6-((4bR,8aR)-4b-methyl-2-((4-((R)-1-methylpyrrolidin-3-yl)phenyl)amino)-4b,7,8,8a-tetrahydropyrano[3′,4′:4,5]pyrrolo[2,3-d]pyrimidin-9(5H)-yl)pyridin-2-yl)oxazolidin-2-one]", "IC50": "< 10"}
{"molecule": "CN[C@@H](C)c1cccc(N2c3nc(Nc4ccc(N5C[C@@H]6C[C@H]5CO6)cc4)ncc3[C@]3(C)COC(C)(C)C[C@H]23)n1", "note": "(single isomer, unassigned) [Example 580]", "IC50": "100 to 1000"}
{"molecule": "CNCc1cccc(N2c3nc(Nc4ccc([C@@H]5CCNC5)cc4)ncc3[C@]3(C)COC(C)(C)C[C@H]23)n1", "note": "(single isomer, unassigned) [Example 453]", "IC50": "100 to 1000"}
{"molecule": "C[C@H]1CCC(=O)N1c1cccc(N2c3nc(Nc4cnn(C5CCN(C)CC5)c4)ncc3C3(C)COC(C)(C)CC23)n1", "note": "(stereo in doubt) [Example 555, (S)-5-methyl-1-(6-((4bS,8aS)-4b,7,7-trimethyl-2-((1-(1-methylpiperidin-4-yl)-1H-pyrazol-4-yl)amino)-4b,7,8,8a-tetrahydropyrano[3′,4′:4,5]pyrrolo[2,3-d]pyrimidin-9(5H)-yl)pyridin-2-yl)pyrrolidin-2-one]", "IC50": "10 to 100"}
{"molecule": "CC1(C)C[C@@H]2N(c3cccc(C4CCNCC4)n3)c3nc(Nc4ccc(N5CCOCC5)cc4)ncc3[C@]2(C)CO1", "note": "(single isomer, unassigned) [Example 532]", "IC50": "100 to 1000"}
{"molecule": "CN1CC[C@@H](c2ccc(Nc3ncc4c(n3)N(c3cccc(N5CCOC5=O)n3)[C@H]3CC(C)(C)OC[C@@]43C)cc2)C1", "note": "(single isomer, unassigned) [Example 604]", "IC50": "10 to 100"}
{"molecule": "CNCc1cccc(N2c3nc(Nc4cnnc(C)c4)ncc3[C@]3(C)COC(C)(C)C[C@H]23)n1", "note": "(single isomer, unassigned) [Example 477]", "IC50": "100 to 1000"}
